Paper PMC3206815, “An Essential Farnesylated Kinesin in Trypanosoma brucei” (PLoS ONE, 2011)

Molecular target: T1, Kinesin^CaaX (Trypanosoma brucei, UniProt Q388Z9)
T1 construct: gene Tb10.389.1270; truncated N-terminal 340-residue motor domain plus coil (full length 832 residues), N-terminal 6xHis, E. coli BL21 soluble lysate, about 44 kDa
T1 sequence (Q388Z9 1-340): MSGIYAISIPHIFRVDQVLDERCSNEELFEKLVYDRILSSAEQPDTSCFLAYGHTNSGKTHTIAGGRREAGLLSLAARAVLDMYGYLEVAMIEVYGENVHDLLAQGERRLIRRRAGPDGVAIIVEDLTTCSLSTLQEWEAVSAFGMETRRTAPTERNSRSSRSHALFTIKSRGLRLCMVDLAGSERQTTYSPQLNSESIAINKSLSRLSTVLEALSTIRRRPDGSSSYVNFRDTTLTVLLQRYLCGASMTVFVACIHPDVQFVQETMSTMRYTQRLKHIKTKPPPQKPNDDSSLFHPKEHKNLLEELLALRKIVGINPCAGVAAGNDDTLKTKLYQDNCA
Experiment: microtubule gliding motility assay
Format: biochemical
Conditions: 1 mM MgATP, BRB80 pH 6.9, taxol-stabilised bovine microtubules; E. coli lysate with recombinant motor domain

Nc1ncnc2c1ncn2[C@@H]1O[C@H](COP(=O)(O)OP(=O)(O)OP(=O)(O)O)[C@@H](O)[C@H]1O [ATP]
microtubule gliding motility assay: both ATP and the Kinesin^CaaX motor domain were required to move microtubules
